In patent US12202821B2, “Herbicidal compounds” (SYNGENTA CROP PROTECTION AG, priority 2019, dated 2025):

Assays:
Format in all cases: in vivo
AMAPA [1] = test: Pre-emergence biological efficacy; details: 312 h, evaluated after 13 days, read-out: damage to plant (100=total damage to plant; 0=no damage to plant), AMAPA
Procedure: (§1) Pre-Emergence Biological Efficacy
(§2) Seeds of weeds and/or crops were sown in standard soil in pots. After cultivation for one day under controlled conditions in a glasshouse (at 24/16° C., day/night; 14 hours light; 65% humidity), the plants were sprayed with an aqueous spray solution derived from the formulation of the technical active ingredient in acetone/water (50:50) solution containing 0.5% Tween 20 (polyoxyethylene sorbitan monolaurate, CAS RN 9005-64-5) to give the desired final dose of test compound.
(§3) The test plants were then grown under controlled conditions in the glasshouse (at 24/16° C., day/night; 14 hours light; 65% humidity) and watered twice daily. After 13 days the test was evaluated (100=total damage to plant; 0=no damage to plant).

ECHCG [2] = test: Pre-emergence biological efficacy; details: Echinochloa crus-galli, 312 h, evaluated after 13 days, read-out: damage to plant (100=total damage to plant; 0=no damage to plant), ECHCG
Procedure: as §1, §2, §3

EPHHL [3] = test: Pre-emergence biological efficacy; details: 312 h, evaluated after 13 days, read-out: damage to plant (100=total damage to plant; 0=no damage to plant), EPHHL
Procedure: as §1, §2, §3

IPOHE [4] = test: Pre-emergence biological efficacy; details: Ipomoea hederacea, 312 h, evaluated after 13 days, read-out: damage to plant (100=total damage to plant; 0=no damage to plant), IPOHE
Procedure: as §1, §2, §3

LOLPE [5] = test: Pre-emergence biological efficacy; details: 312 h, evaluated after 13 days, read-out: damage to plant (100=total damage to plant; 0=no damage to plant), LOLPE
Procedure: as §1, §2, §3

SETFA [6] = test: Pre-emergence biological efficacy; details: Setaria faberi, 312 h, evaluated after 13 days, read-out: damage to plant (100=total damage to plant; 0=no damage to plant), SETFA
Procedure: as §1, §2, §3

AMAPA [7] = test: Post-emergence biological efficacy; details: 312 h, evaluated after 13 days, read-out: damage to plant (100=total damage to plant; 0=no damage to plant), AMAPA
Procedure: (§4) Post-Emergence Biological Efficacy
as §2, with “8 days” for “one day”
(§5) The test plants were then grown on under controlled conditions in a glasshouse (at 24/16° C., day/night; 14 hours light; 65% humidity) and watered twice daily. After 13 days the test was evaluated (100=total damage to plant; 0=no damage to plant).

CHEAL = test: Post-emergence biological efficacy; details: Chenopodium album, 312 h, evaluated after 13 days, read-out: damage to plant (100=total damage to plant; 0=no damage to plant), CHEAL
Procedure: as §4
as §2, with “8 days” for “one day”
as §5

DIGSA = test: Post-emergence biological efficacy; details: Digitaria sanguinalis, 312 h, evaluated after 13 days, read-out: damage to plant (100=total damage to plant; 0=no damage to plant), DIGSA
Procedure: as §4
as §2, with “8 days” for “one day”
as §5

ECHCG [8] = test: Post-emergence biological efficacy; details: Echinochloa crus-galli, 312 h, evaluated after 13 days, read-out: damage to plant (100=total damage to plant; 0=no damage to plant), ECHCG
Procedure: as §4
as §2, with “8 days” for “one day”
as §5

ELEIN = test: Post-emergence biological efficacy; details: 312 h, evaluated after 13 days, read-out: damage to plant (100=total damage to plant; 0=no damage to plant), ELEIN
Procedure: as §4
as §2, with “8 days” for “one day”
as §5

EPHHL [9] = test: Post-emergence biological efficacy; details: 312 h, evaluated after 13 days, read-out: damage to plant (100=total damage to plant; 0=no damage to plant), EPHHL
Procedure: as §4
as §2, with “8 days” for “one day”
as §5

IPOHE [10] = test: Post-emergence biological efficacy; details: Ipomoea hederacea, 312 h, evaluated after 13 days, read-out: damage to plant (100=total damage to plant; 0=no damage to plant), IPOHE
Procedure: as §4
as §2, with “8 days” for “one day”
as §5

LOLPE [11] = test: Post-emergence biological efficacy; details: 312 h, evaluated after 13 days, read-out: damage to plant (100=total damage to plant; 0=no damage to plant), LOLPE
Procedure: as §4
as §2, with “8 days” for “one day”
as §5

SETFA [12] = test: Post-emergence biological efficacy; details: Setaria faberi, 312 h, evaluated after 13 days, read-out: damage to plant (100=total damage to plant; 0=no damage to plant), SETFA
Procedure: as §4
as §2, with “8 days” for “one day”
as §5

Which results are given for CN(C)S(=O)(=O)NC(=O)C1(C)CC(c2cc(-n3c(=O)n(C)c(=S)n(C)c3=O)c(F)cc2Cl)=NO1 (stereo not drawn) [Compound 305, 3-[2-Chloro-5-(3,5-dimethyl-2,6-dioxo-4-thioxo-1,3,5-triazinan-1-yl)-4-fluoro-phenyl]-N-(dimethylsulfamoyl)-5-methyl-4H-isoxazole-5-carboxamide]?
pest or weed control at 250 g/ha (AMAPA [1]): 100%; pest or weed control at 250 g/ha (ECHCG [2]): 30%; pest or weed control at 250 g/ha (EPHHL [3]): 60%; pest or weed control at 250 g/ha (IPOHE [4]): 80%; pest or weed control at 250 g/ha (LOLPE [5]): 30%; pest or weed control at 250 g/ha (SETFA [6]): 90%; pest or weed control at 250 g/ha (AMAPA [7]): 100%; pest or weed control at 250 g/ha (CHEAL): 100%; pest or weed control at 250 g/ha (DIGSA): 100%; pest or weed control at 250 g/ha (ECHCG [8]): 100%; pest or weed control at 250 g/ha (ELEIN): 100%; pest or weed control at 250 g/ha (EPHHL [9]): 100%; pest or weed control at 250 g/ha (IPOHE [10]): 100%; pest or weed control at 250 g/ha (LOLPE [11]): 100%; pest or weed control at 250 g/ha (SETFA [12]): 100%

What does the source list for Cn1c(=S)n(C)c(=O)n(-c2cc(C3=NOC(C)(C(N)=O)C3)c(Cl)cc2F)c1=O (stereo not drawn) [Compound 308, 3-[2-chloro-5-(3,5-dimethyl-2,6-dioxo-4-thioxo-1,3,5-triazinan-1-yl)-4-fluoro-phenyl]-5-methyl-4H-isoxazole-5-carboxamide]?
pest or weed control at 250 g/ha (AMAPA [1]): 100%; pest or weed control at 250 g/ha (ECHCG [2]): 10%; pest or weed control at 250 g/ha (EPHHL [3]): 80%; pest or weed control at 250 g/ha (IPOHE [4]): 50%; pest or weed control at 250 g/ha (LOLPE [5]): 60%; pest or weed control at 250 g/ha (SETFA [6]): 90%; pest or weed control at 250 g/ha (AMAPA [7]): 100%; pest or weed control at 250 g/ha (CHEAL): 100%; pest or weed control at 250 g/ha (DIGSA): 100%; pest or weed control at 250 g/ha (ECHCG [8]): 100%; pest or weed control at 250 g/ha (ELEIN): 100%; pest or weed control at 250 g/ha (EPHHL [9]): 90%; pest or weed control at 250 g/ha (IPOHE [10]): 100%; pest or weed control at 250 g/ha (LOLPE [11]): 90%; pest or weed control at 250 g/ha (SETFA [12]): 100%

How did the pest or weed control at 250 g/ha (AMAPA [1]) turn out when COC(=O)C1(OC)CC(c2cc(-n3c(=O)n(C)c(=S)n(C)c3=O)c(F)cc2Cl)=NO1 (stereo not drawn) [Compound 311, Methyl 3-[2-chloro-5-(3,5-dimethyl-2,6-dioxo-4-thioxo-1,3,5-triazinan-1-yl)-4-fluoro-phenyl]-5-methoxy-4H-isoxazole-5-carboxylate] was run?
Its pest or weed control at 250 g/ha is 100%.

What about the pest or weed control at 250 g/ha (ECHCG [2]) of the same compound?
The pest or weed control at 250 g/ha was 10%.

What about the pest or weed control at 250 g/ha (EPHHL [3]) of the same compound?
Its pest or weed control at 250 g/ha is 50%.

What about the pest or weed control at 250 g/ha (IPOHE [4]) of the same compound?
The pest or weed control at 250 g/ha was 70%.

And the pest or weed control at 250 g/ha (LOLPE [5])?
The pest or weed control at 250 g/ha was 10%.

What about the pest or weed control at 250 g/ha (SETFA [6]) of the same compound?
Its pest or weed control at 250 g/ha is 90%.

What about the pest or weed control at 250 g/ha (AMAPA [7]) of the same compound?
Its pest or weed control at 250 g/ha is 90%.

And the pest or weed control at 250 g/ha (CHEAL)?
Its pest or weed control at 250 g/ha is 90%.

What about the pest or weed control at 250 g/ha (DIGSA) of the same compound?
Its pest or weed control at 250 g/ha is 80%.

What about the pest or weed control at 250 g/ha (ECHCG [8]) of the same compound?
Its pest or weed control at 250 g/ha is 90%.

And the pest or weed control at 250 g/ha (ELEIN)?
Its pest or weed control at 250 g/ha is 90%.

What about the pest or weed control at 250 g/ha (EPHHL [9]) of the same compound?
Its pest or weed control at 250 g/ha is 90%.

And the pest or weed control at 250 g/ha (IPOHE [10])?
Its pest or weed control at 250 g/ha is 90%.

And the pest or weed control at 250 g/ha (LOLPE [11])?
Its pest or weed control at 250 g/ha is 50%.

And the pest or weed control at 250 g/ha (SETFA [12])?
Its pest or weed control at 250 g/ha is 100%.
